{"source": "paper PMC10915168", "about": "“DJ-1 protects proteins from acylation by catalyzing the hydrolysis of highly reactive cyclic 3-phosphoglyceric anhydride” (Nature Communications, 2024)", "target": "T1, DJ-1 (Homo sapiens, UniProt Q99497, C106S)", "T1 construct": "gene PARK7; full-length, N-terminal His-tag removed by TEV protease; Ni-NTA purified recombinant; ~20 kDa", "T1 sequence (Q99497 1-189 C106S)": "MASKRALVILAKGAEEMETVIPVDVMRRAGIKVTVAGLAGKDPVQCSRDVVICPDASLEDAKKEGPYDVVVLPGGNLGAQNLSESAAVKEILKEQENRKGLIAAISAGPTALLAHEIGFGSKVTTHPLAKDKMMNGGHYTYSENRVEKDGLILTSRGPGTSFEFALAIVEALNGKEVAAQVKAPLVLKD", "assay": "end-point NAC assay of remaining cPGA; 1H-NMR", "type": "biochemical", "conditions": "500 µM cPGA, 2 min, 50 mM sodium phosphate pH 7.0, 25 °C; catalytic cysteine mutant", "data": [{"smiles": "O=C1OP(=O)(O)OC[C@H]1O", "note": "[cPGA]", "values": [{"measurement": "end-point NAC assay of remaining cPGA; 1H-NMR", "value": "Mutation of the catalytic cysteine (C106S) in DJ-1 completely abolished this activity"}]}]}
